Assay results published in ChEMBL document CHEMBL1201862, “PubChem BioAssay data set” (2004).
Active and inactive are the calls of the source.

Experiments:
BJ [1] = assay: cytotoxicity toward BJ-TERT fibroblasts, dose response, cell-based, RAS-independent, luminescence (AID 1933); format: functional; conditions: Homo sapiens
Vero [2] = assay: cells; format: functional, cell-based; conditions: Chlorocebus sabaeus
[3] = target: Heat shock protein HSP 90-alpha (Homo sapiens, UniProt P07900); format: functional, organism-based
[4] = inhibitors of firefly luciferase expression or activity, dose response, H4 neuroglioma cells, luminescence (AID 1990); format: functional, cell-based
[5] = cytotoxicity toward DRD oncogenic fibroblasts, dose response, cell-based, non-viral oncogenic, luminescence (AID 1934); format: functional; conditions: Homo sapiens
BJ [6] = assay: cells; format: functional, cell-based; conditions: Homo sapiens
[7] = inhibitors of SNCA 5'UTR-driven translation, confirmation, luminescence, H4 neuroglioblastoma cells, dose confirmation (AID 2454); format: functional, cell-based;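 further: H4 neuroglioblastoma cells carrying an alpha-synuclein 5'UTR luciferase reporter; potency for inhibition of the luciferase signal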
[8] = cytotoxicity in MIN6 insulinoma cells, dose response, cytotoxicity control, cell-based, mouse insulinoma (AID 2122); format: functional;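 further: confirmatory high-throughput counterscreen run to flag cytotoxic compounds; mouse MIN-6 beta cells carrying an insulin promoter eGFP reporter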
[9] = luciferase reporter signal reduction – luminescence, H4-C neuroglioblastoma cells, dose response (AID 2458); format: functional, cell-based;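 further: H4 neuroglioblastoma cells stably carrying a luciferase reporter gene fusion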
Vero [10] = assay: cells; format: functional; conditions: Chlorocebus sabaeus
Streptococcus = assay: Group A Streptococcus viability loss, dose response, counter-screen for streptokinase expression inhibitor project, luminescence, BacTiterGlo (AID 1915); format: functional, organism-based;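 further: potency for reduction of bacterial viability or growth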
[11] = target: T1, Heat shock factor protein 1 (Mus musculus, UniProt P38532); assay: HSF1 potentiators in luciferase reporter cells, confirmation, cell-based, NIH3T3, luminescence, dose retest (AID 435004); format: functional;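 further: stress induced by proteasome inhibitor MG132 added 30 min after compound; luciferase reporter driven by HSF1 response element in NIH3T3 cells; actives raise luminescence as potentiators of the MG132 stress response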
T1 sequence (P38532 whole entry): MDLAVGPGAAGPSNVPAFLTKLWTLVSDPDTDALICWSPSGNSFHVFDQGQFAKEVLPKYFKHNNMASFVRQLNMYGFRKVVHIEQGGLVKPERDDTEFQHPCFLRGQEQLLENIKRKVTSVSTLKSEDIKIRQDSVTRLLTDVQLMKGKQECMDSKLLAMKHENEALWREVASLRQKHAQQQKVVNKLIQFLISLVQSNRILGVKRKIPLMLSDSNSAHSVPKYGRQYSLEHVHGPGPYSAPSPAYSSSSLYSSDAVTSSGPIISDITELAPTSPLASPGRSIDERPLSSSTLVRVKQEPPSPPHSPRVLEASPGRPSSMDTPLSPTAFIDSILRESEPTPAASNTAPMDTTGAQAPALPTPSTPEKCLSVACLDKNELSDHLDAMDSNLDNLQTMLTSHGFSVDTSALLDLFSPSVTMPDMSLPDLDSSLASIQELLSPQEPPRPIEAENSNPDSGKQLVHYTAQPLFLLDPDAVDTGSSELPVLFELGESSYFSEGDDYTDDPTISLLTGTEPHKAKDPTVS

[12] = insulin promoter down-regulators in MIN6 cells, imaging, high-content screening, mouse beta cells (AID 1628); format: functional
[13] = test system: Streptococcus sp. 'group A'; assay: growth inhibition of control SK(-) GAS strain, dose response, counter-screen for streptokinase expression inhibitor project, luminescence, kanamycin, BacTiterGlo, confirmation (AID 1900); format: functional, organism-based
BJ [14] = assay: cytotoxicity toward BJ-TERT-LT-ST fibroblasts, dose response, cell-based, RAS-independent, luminescence (AID 1935); format: functional; conditions: Homo sapiens;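 further: BJ fibroblasts immortalized with TERT plus LT and ST oncogenes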
[15] = Luminescence Cell-Based Dose Response HTS to Identify Inhibitors of 5'UTR Stem-Loop Driven Prion Protein mRNA Translation in H4 Neuroglioblastoma Cells. [Related pubchem assays: 1827 (Project Summary), 1813 (Primary HTS)]; format: functional
[16] = cytotoxicity in HEK-293T cells, dose response, cytotoxicity control for TCR NF-kB inhibitor project, luminescence, T-cell screen hits (AID 489026); format: functional, cell-based;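 further: cells exposed to compound about 14 hours before the viability readout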
cells [17] = format: functional, cell-based
[18] = inhibitors of SNCA 5'UTR-driven reporter translation, confirmation, H4 neuroglioma cells, luminescence (AID 1988); format: functional, cell-based
Exodeoxyribonuclease V = Exodeoxyribonuclease V (Escherichia coli (strain K12), UniProt P04993+P07648+P08394); assay: E. coli RecBCD inhibitors, dose response, counter-screen for AddAB inhibitor project, absorbance, V66 E. coli, mutant T4 phage (AID 492957); format: functional, cell-based, Escherichia coli str. K-12 substr. MG1655
Exodeoxyribonuclease V, sequence (P04993 whole entry): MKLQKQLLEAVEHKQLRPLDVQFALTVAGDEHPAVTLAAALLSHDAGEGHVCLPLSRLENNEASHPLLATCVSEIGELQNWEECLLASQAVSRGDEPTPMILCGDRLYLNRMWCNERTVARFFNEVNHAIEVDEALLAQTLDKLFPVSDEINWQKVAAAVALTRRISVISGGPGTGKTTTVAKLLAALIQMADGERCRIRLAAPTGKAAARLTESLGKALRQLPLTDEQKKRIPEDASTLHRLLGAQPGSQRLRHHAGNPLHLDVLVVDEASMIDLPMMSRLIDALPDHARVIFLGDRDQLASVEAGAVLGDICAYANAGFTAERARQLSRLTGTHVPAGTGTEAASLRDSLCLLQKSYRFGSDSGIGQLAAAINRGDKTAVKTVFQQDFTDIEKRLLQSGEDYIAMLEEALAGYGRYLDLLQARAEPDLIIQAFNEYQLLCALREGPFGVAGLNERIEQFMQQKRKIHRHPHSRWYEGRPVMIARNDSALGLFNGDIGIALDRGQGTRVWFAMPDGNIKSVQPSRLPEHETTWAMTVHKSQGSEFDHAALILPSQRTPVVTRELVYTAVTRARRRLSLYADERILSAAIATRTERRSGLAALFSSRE
Exodeoxyribonuclease V, sequence (P07648 whole entry): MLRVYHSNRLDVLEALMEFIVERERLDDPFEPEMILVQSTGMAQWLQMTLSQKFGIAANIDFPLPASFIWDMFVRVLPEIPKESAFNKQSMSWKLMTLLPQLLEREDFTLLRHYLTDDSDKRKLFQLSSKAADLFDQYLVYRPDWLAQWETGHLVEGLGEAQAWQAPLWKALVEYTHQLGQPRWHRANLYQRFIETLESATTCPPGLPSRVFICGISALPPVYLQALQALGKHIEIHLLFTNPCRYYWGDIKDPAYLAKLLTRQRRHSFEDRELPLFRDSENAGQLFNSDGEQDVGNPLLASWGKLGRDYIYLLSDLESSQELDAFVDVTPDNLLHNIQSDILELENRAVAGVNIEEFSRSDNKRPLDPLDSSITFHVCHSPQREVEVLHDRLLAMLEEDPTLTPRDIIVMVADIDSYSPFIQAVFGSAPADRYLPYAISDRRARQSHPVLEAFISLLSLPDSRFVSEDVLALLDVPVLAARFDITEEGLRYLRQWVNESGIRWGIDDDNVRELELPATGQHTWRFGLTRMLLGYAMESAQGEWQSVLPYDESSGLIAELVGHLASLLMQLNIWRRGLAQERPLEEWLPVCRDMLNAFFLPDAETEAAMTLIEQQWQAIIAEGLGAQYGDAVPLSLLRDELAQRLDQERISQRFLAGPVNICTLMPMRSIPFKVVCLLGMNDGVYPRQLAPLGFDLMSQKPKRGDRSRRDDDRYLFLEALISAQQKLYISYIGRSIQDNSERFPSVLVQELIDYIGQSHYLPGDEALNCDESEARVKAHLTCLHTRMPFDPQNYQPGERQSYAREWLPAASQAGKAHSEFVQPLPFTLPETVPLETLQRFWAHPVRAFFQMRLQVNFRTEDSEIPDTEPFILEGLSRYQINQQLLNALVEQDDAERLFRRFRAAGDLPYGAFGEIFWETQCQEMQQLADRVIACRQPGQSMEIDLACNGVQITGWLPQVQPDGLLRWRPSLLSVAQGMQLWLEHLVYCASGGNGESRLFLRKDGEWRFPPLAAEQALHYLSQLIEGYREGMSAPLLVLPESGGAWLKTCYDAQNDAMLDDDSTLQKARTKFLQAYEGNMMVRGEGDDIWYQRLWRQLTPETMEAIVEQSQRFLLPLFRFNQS
Exodeoxyribonuclease V, sequence (P08394 whole entry): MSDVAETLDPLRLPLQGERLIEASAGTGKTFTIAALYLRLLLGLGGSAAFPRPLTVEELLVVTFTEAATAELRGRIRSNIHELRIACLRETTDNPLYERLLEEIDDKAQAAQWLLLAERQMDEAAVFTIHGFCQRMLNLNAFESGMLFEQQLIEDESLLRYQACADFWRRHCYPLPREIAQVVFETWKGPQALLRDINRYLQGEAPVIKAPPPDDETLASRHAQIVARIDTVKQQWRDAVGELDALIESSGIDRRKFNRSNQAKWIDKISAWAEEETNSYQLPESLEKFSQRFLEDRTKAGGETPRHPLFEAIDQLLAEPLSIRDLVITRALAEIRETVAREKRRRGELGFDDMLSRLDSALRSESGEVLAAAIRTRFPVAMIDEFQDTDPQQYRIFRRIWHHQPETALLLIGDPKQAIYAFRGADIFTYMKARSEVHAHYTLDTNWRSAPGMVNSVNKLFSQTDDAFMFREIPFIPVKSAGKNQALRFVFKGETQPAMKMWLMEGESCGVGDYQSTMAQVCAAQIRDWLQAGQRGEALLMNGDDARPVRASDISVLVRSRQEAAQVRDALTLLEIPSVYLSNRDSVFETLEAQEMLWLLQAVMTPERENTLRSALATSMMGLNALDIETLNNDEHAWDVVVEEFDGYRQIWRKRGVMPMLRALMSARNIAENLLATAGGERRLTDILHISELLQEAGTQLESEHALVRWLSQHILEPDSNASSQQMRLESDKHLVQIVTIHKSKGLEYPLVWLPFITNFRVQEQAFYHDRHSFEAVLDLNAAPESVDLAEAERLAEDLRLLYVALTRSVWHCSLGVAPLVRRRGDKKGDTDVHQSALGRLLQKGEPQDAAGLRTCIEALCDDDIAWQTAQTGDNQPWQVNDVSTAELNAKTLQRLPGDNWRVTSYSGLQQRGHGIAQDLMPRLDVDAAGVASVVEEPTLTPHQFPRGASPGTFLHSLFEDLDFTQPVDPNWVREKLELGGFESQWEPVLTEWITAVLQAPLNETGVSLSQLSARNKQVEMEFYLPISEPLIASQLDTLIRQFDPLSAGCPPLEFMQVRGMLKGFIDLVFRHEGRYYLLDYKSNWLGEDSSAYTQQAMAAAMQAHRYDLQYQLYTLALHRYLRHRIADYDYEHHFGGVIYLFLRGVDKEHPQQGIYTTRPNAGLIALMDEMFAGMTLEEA

[19] = Counterscreen for AddAB inhibitors: absorbance-based bacterial cell-based high throughput dose response assay for inhibitors of bacterial viability. [Related pubchem assays (depositor defined):AID435030, AID449728, AID449731, AID488942, AID488955, AID488956]; format: functional
BJ [20] = assay: cytotoxicity toward Ras-transformed BJeLR fibroblasts, dose response, cell-based, alamar blue fluorescence, cherrypicked samples (AID 2631); format: functional; conditions: Homo sapiens;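 further: confirmatory dose-response assay in RAS-dependent BJ fibroblasts engineered with TERT, LT and ST, with cytotoxicity read by fluorescence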
[21] = target: Delta-type opioid receptor (Homo sapiens, UniProt P41143); assay: Counterscreen for agonists of heterodimerization of the mu 1 (OPRM1) and delta 1 (OPRD1) opioid receptors: Luminescence-based cell-based high throughput dose response assay to identify agonists of OPRD1 homodimerization. [Related pubchem assays (depositor defined):AID504326, AID504355, AID504692, AID504904, AID504905]; format: functional
Delta-type opioid receptor, sequence (P41143 whole entry): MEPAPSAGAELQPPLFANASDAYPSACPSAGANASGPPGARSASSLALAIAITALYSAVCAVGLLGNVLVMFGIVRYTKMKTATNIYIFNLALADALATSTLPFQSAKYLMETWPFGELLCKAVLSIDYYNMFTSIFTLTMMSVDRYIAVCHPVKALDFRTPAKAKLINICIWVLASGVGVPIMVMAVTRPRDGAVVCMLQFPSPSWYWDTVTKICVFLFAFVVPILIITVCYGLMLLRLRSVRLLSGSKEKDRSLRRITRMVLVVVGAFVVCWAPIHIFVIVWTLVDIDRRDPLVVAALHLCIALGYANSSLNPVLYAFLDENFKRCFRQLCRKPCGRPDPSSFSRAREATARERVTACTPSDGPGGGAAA

Mu-type opioid receptor = Mu-type opioid receptor (Homo sapiens, UniProt P35372); assay: Counterscreen for agonists of heterodimerization of the mu 1 (OPRM1) and delta 1 (OPRD1) opioid receptors: Luminescence-based cell-based high throughput dose response assay to identify agonists of OPRM1 homodimerization.; format: functional;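 further: U2OS cells expressing OPRM1 and beta-arrestin as split beta-galactosidase partners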
Mu-type opioid receptor, sequence (P35372 whole entry): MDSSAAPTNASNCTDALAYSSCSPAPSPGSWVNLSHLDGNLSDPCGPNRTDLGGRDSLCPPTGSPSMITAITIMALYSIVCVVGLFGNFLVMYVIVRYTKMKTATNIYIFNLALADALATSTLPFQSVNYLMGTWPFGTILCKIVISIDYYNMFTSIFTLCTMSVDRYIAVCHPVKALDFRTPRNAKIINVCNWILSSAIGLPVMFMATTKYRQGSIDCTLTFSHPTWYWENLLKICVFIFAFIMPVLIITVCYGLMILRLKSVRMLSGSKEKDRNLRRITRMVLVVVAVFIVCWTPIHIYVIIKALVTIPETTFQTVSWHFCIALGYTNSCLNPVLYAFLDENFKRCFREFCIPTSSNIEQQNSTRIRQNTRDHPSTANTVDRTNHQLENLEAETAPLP

[22] = target: T2, Short transient receptor potential channel 4 (Mus musculus, UniProt Q9QUQ5); assay: mouse TRPC4 channel activators, dose response, cell-based, HEK293 TRPC4/mu-opioid, Fluo-4 calcium (AID 434937); format: functional
T2 sequence (Q9QUQ5 whole entry): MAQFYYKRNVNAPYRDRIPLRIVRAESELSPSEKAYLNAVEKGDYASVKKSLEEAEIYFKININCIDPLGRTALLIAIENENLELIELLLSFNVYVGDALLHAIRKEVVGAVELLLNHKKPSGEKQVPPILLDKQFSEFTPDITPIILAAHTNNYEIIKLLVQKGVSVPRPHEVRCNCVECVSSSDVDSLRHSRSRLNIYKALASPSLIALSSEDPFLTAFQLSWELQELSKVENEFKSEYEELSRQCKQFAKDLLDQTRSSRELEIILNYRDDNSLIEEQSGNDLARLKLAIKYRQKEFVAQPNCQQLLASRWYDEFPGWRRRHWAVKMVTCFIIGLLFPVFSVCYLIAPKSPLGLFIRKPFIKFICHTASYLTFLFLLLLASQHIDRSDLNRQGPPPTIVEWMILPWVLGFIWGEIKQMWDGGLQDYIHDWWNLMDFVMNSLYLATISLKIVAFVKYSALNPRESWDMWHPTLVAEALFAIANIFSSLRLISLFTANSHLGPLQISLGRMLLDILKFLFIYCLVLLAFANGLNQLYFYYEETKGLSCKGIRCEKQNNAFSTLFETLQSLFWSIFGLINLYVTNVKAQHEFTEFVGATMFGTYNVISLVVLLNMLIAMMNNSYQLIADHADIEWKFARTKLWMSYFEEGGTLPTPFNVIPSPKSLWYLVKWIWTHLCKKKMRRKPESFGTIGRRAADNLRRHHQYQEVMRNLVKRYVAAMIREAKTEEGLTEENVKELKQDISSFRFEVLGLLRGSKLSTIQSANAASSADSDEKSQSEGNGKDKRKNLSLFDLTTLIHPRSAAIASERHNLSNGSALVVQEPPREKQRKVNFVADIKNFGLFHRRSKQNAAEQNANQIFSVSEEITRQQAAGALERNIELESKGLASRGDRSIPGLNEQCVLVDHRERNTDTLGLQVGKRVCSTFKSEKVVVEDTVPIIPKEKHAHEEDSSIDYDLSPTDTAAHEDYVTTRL

[23] = target: 5-hydroxytryptamine receptor 5A (Homo sapiens, UniProt P47898); assay: Counterscreen for agonists of OPRM1-OPRD1 heterodimerization: luminescence-based cell-based high throughput dose response assay to identify agonists of 5-hydroxytryptamine (serotonin) 5A receptor (HTR5A). [Related pubchem assays (depositor defined):AID504326, AID504355, AID504692, AID504904, AID504905]; format: functional
5-hydroxytryptamine receptor 5A, sequence (P47898 whole entry): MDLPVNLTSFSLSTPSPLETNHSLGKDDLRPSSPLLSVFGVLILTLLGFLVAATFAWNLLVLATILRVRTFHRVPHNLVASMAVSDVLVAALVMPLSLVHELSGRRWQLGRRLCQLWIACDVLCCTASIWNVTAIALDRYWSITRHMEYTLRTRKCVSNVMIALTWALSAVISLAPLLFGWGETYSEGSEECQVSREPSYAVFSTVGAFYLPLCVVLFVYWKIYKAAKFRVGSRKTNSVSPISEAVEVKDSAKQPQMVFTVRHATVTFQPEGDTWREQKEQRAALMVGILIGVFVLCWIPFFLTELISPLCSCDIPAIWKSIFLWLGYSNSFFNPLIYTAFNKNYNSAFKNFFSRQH

[24] = target: Voltage-gated inwardly rectifying potassium channel KCNH2 (Homo sapiens, UniProt Q12809); conditions: Potency;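 further: confirmatory quantitative high-throughput screen measuring inhibition of hERG channel activity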
[25] = target: T3, Dual specificity protein phosphatase 6 (Rattus norvegicus, UniProt Q64346)
T3 sequence (Q64346 whole entry): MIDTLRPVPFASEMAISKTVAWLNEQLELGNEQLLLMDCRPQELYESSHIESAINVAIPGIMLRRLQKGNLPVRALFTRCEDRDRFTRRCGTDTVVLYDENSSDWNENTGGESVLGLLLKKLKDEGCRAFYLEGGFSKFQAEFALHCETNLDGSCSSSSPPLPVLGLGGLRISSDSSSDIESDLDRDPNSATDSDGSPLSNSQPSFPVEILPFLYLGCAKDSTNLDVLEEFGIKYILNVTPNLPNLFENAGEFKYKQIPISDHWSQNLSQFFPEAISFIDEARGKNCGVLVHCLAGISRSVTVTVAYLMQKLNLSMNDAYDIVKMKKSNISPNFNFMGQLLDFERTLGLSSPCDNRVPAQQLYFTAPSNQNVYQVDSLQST

[26] = target: T3, Dual specificity protein phosphatase 6; format: functional
[27] = target: Glyceraldehyde-3-phosphate dehydrogenase (Homo sapiens, UniProt P04406)
Glyceraldehyde-3-phosphate dehydrogenase, sequence (P04406 whole entry): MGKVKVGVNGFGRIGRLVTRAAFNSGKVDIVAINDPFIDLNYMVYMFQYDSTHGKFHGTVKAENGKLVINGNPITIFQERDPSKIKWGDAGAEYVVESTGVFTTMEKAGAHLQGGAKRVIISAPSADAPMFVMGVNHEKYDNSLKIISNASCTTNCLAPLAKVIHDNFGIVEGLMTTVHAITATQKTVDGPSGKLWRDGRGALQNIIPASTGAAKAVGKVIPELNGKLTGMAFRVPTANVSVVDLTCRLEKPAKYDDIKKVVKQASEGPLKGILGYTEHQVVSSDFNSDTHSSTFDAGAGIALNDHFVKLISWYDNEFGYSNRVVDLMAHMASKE

[28] = target: T4, Tyrosine-protein phosphatase non-receptor type 7 (Homo sapiens, UniProt P35236); format: functional
T4 sequence (P35236 whole entry): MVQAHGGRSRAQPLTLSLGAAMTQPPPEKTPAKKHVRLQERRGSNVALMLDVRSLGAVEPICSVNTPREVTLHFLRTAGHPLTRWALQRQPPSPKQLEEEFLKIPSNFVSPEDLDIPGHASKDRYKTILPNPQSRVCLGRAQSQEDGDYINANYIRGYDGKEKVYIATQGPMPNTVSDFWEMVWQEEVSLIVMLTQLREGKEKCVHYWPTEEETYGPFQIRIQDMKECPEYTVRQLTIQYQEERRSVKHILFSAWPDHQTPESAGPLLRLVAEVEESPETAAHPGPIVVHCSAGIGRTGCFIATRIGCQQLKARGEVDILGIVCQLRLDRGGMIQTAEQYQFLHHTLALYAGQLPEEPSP

cells [29] = format: functional
[30] = THP-1 cell cytotoxicity, dose response, cytotoxicity control for non-replicating M. tuberculosis project (AID 489025); format: functional
[31] = target: T2, Short transient receptor potential channel 4; assay: mouse TRPC4 channel inhibitors, dose response, cell-based, HEK293 TRPC4/mu-opioid, Fluo-4 calcium (AID 434942); format: functional;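 further: potency of inhibitors blocking the TRPC4 calcium response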
[32] = Shn3 3'UTR reporter inhibitors, dose response, cell-based, Clone20 osteoblasts, firefly luciferase, cherry-picked (AID 624132); format: functional;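 further: firefly luciferase luminescence from reporter carrying the Shn3 3'UTR in osteoblasts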
[33] = HepG2 cell cytotoxicity, dose response, cytotoxicity control for Shn3 inhibitor project, CellTiter-Glo, cherry-picked (AID 624134); format: functional, cell-based
[34] = cytotoxicity toward NIH3T3 fibroblasts, dose response, counter-screen, cell-based, ATP luminescence, mouse fibroblasts (AID 2010); format: functional;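 further: cells exposed to compound for about 90 hours before reading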
[35] = Vero E6 cell cytotoxicity, dose response, cytotoxicity control for non-replicating M. tuberculosis project, secondary assay (AID 492998); format: functional, VeroE6; conditions: Vero C1008
[36] = control 3'UTR Renilla luciferase suppression, dose response, counter-screen for Shn3 inhibitor project, cell-based, Clone20-Shn3RL, cherry-picked (AID 624133); format: functional
[37] = HepG2 cell cytotoxicity, dose response, cytotoxicity control for non-replicating M. tuberculosis project (AID 489018); format: functional; conditions: Mycobacterium tuberculosis
[38] = inhibitors of intracellular T. cruzi replication, confirmation, NIH3T3 host cells, beta-gal luminescence (AID 2044); format: functional, cell-based;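 further: intracellular parasites grown in NIH/3T3 mouse fibroblasts as host cells; luminescent beta-galactosidase reporter signal from transgenic T. cruzi replicating inside host cells; inhibitors lower the luminescence signal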

In the case of `Oc1ccccc1N=Nc1nc(-c2ccccc2)c(-c2ccccc2)[nH]1`, the EC50 (BJ [1]) is reported as 0.643 µM (inconclusive), the IC50 (Vero [2]) is reported as > 25 µM (active) and the AC50 [3] is reported as 2.29 µM (active). The EC50 [4] was < 0.1 µM (active), the EC50 [5] was 0.515 µM (active) and the EC50 (BJ [6]) was 0.951 µM (active). The EC50 [7] was 0.507 µM (active), the IC50 [8] was 0.82 µM (active) and the EC50 [9] was 0.282 µM (active). The CC50 (Vero [10]) was 0.06 µM (active), the EC50 (Streptococcus) was 1.05 µM (active) and the EC50 [11] was 26 µM (active). The IC50 [12] was 0.533 µM (active), the EC50 [13] was 0.278 µM (active) and the EC50 (BJ [14]) was 1.67 µM (active). For the same compound, the EC50 [15] was 0.103 µM (active), the IC50 [16] was > 80 µM (inactive) and the EC50 (cells [17]) was 0.355 µM (active). For the same compound, the EC50 [18] was < 0.1 µM (active), the IC50 (Exodeoxyribonuclease V) was > 119 µM (inactive) and the IC50 [19] was > 119 µM (inactive). The EC50 (BJ [20]) was 0.118 µM (active).
With `COc1ccc(C(CNC(=O)CSc2ccccc2C)N(C)C)cc1` (stereo not given) the EC50 [21] was > 92.5 µM (inactive), the EC50 (Mu-type opioid receptor) was > 92.5 µM (inactive) and the EC50 [22] was 0.237 µM (active). For the same compound, the EC50 [23] was > 92.5 µM (inactive).
With `Cc1cccc(C)c1OCC(N)C(C)C` (stereo not given) the AC50 [24] was 35.5 µM (inconclusive).
In the case of `Cn1c(=O)n(-c2ccccc2)c(=O)n([C@@H](Cc2ccccc2)C(N)=O)c1=O`, the IC50 [25] is reported as > 100 µM (inactive), the IC50 [26] is reported as > 100 µM (inactive) and the IC50 [27] is reported as > 100 µM (not active). The IC50 [28] was > 100 µM (not active).
In the case of `Cc1ccccc1OCC(O)Cn1c(=N)n(Cc2ccccc2)c2ccccc21` (stereo not given), the IC50 (cells [29]) is reported as 18.5 µM (active), the EC50 [21] is reported as > 92.5 µM (inactive) and the CC50 [30] is reported as 7.48 µM (active). For the same compound, the EC50 [31] was 1.06 µM (active), the AC50 [32] was 2.25 µM (active) and the EC50 (Mu-type opioid receptor) was > 92.5 µM (inactive). For the same compound, the AC50 [33] was 11.2 µM (active), the EC50 [34] was > 30 µM (not active) and the CC50 [35] was 19.9 µM (active). For the same compound, the AC50 [36] was 1.49 µM (active), the CC50 [37] was 8.06 µM (active) and the EC50 [22] was 3.35 µM (active). For the same compound, the EC50 [23] was > 92.5 µM (inactive) and the EC50 [38] was 2.75 µM (active).
